The results in this text go back to patent US12569508B2, “Antimicrobial compositions and methods of use” (priority 2020, dated 2026).

For this assay, the system named is PAO1 biofilm. The assay can be described thus: In vitro MBEC antibiofilm assay. Type of assay: cell-based, P. aeruginosa. Particulars: 5-15 μg/mL colistin. As to the method:
The pegs on lid of the MBEC Assay® were submerged into the bacterial suspension, with column 12 containing sterile LB broth as a negative control. The plate was incubated at 37° C. on a rotating gyrator for 24 h to form biofilm on the pegs. After 24 h, the peg lid was removed and transferred into another 96-well microtiter plate containing sterile water for 30 seconds before being transferred into a treatment plate. The peg lid in the treatment plate was incubated for 24 h at 37° C. on the rotating gyrator. In the first study, the effect of concentration variation of TOB in MO-LCNPs was determined. […] The respective controls included unloaded formulations MO-LCNP and […] at equivalent concentrations and 0.9% NaCl. […] In the second study, the difference in effect of MO- and […] compared to liposomes containing TOB was determined. […] The final concentration of MO and PHY was 0.25 mg/mL. Liposomes were prepared as described above. In the third study, TOB, AMI and GEN as unformulated solutions and loaded in MO-LCNPs were compared as treatments against PAO1 biofilms in the MBEC Assay®. The concentration of each antibiotic was 6 μg/mL. […] In all four different studies, the treatments were incubated with the PAO1 biofilm grown on the MBEC Assay® on a rotating plate at 37° C. After 24 h incubation, the peg lid was transferred to a fresh plate containing sterilized water to inhibit treatments. […]

On to Colistin sulfate salt, for which the “anti-biofilm effect compared to saline control” value is “no anti-biofilm or antimicrobial effect”.
